Assay results from patent publication US20120029187A1, “HALOALKYLSULFONANILIDE DERIVATIVE” (Nissan Chemical Industries, Ltd., priority 2009, published 2012).

Columns and labels:
Assay type in all cases: in vivo
transplanted rice = assay: Test Example 1: preemergence treatment under submerged conditions, effect on crop; details: dose 2.52 g/a
Excerpt: (§1) Test on the Herbicidal Effects in Preemergence Treatment on Weeds Under Submerged Conditions
(§2) Alluvial soil was put in 1/30000-are styrol cups and admixed with water so that it was submerged at a depth of 4 cm. In each cup, seeds of barnyardgrass, bulrush and ducksalad were sown together, and rice seedlings at the 2.5-leaf stage were transplanted. On the same day as the seeding, emulsifiable concentrates containing compounds of the present invention formulated in accordance with Formulation Example 2 were applied to the water surfaces at predetermined doses after diluted with water. The cups were placed in a greenhouse at 25 to 30° C. to grow the plants. Three weeks after the application, the herbicidal effects against various plants were determined on the following evaluation scale.
(§3) 5 mortality of 90% or above (nearly complete death)
(§4) 4 mortality of at least 70% and less than 90%
(§5) 3 mortality of at least 40% and less than 70%
(§6) 2 mortality of at least 20% and less than 40%
(§7) 1 mortality of at least 5% and less than 20%
(§8) 0 mortality of less than 5% (almost ineffective)
(§9) A: barnyardgrass, B: bulrush, C: ducksalad, D: large crabgrass, E: giant foxtail, F: wild oat, G: water foxtail, H: Italian ryegrass, I: velvetleaf, J: common ragweed, K: redroot pigweed, L: common lambsquater, M: posumbu knotweed, N: common chickweed, O: beadstraw, a: transplanted rice, b: corn, c: soybean, d: direct-seeded rice, e: wheat, f: sugar beet.
(§10) The doses (g/a) represents the amounts in g per 1 are (a) applied after adjustment of concentration adjustment.

barnyardgrass [1] = assay: Test Example 2: herbicidal effects during the vegetation period under submerged conditions; details: treatment during the vegetation period under submerged conditions; dose 2.52 g/a
Experimental: (§11) Test on the Herbicidal Effects on Weeds During the Vegetation Period Under Submerged Conditions
(§12) Alluvial soil was put in 1/30000-are styrol cups and admixed with water so that it was submerged at a depth of 4 cm. In each cup, seeds of barnyardgrass, bulrush and ducksalad were sown together, and the cups were placed in a greenhouse at 25 to 30° C. to grow the plants. When the barnyardgrass, bulrush and ducksalad reached the 1- or 2-leaf stage, emulsifiable concentrates containing compounds of the present invention formulated in accordance with Formulation Example 2 were applied to the water surfaces at predetermined doses after diluted with water. Three weeks after the application, the herbicidal effects against various plants were determined on the same evaluation scale as in Test Example 1.
as §9, §10

ducksalad [2] = assay: as above; details: treatment during the vegetation period under submerged conditions; dose 2.52 g/a
Experimental: as §11, §12, §9, §10

bulrush [3] = assay: as above; details: treatment during the vegetation period under submerged conditions; dose 2.52 g/a
Experimental: as §11, §12, §9, §10

water foxtail [4] = assay: Test Example 4: herbicidal effect in foliage treatment; details: dose 3.2 g/a, three weeks after application
Excerpt: (§13) Test on the Herbicidal Effect in Foliage Treatment
(§14) Sterilized diluvial soil was put in plastic boxes with a length of 21 cm, a width of 13 cm and a depth of 7 cm, and seeds of barnyardgrass, large crabgrass, giant foxtail, wild oat, blackgrass, velvetleaf, common ragweed, redroot pigweed, common lambsquater, posumbu knotweed, common chickweed, corn, soybean, rice, wheat and sugar beet were sown in spots and covered with an about 1.5 cm-thick soil layer. The boxes were placed in a greenhouse at 25 to 30° C. to grow the plants. After 14 days, emulsifiable concentrates containing compounds of the present invention formulated in accordance with Formulation Example 2 were uniformly applied to the foliage at predetermined doses through a small sprayer after diluted with water. Three weeks after the application, the herbicidal effects against various plants were determined on the same evaluation scale as in Test Example 1.
as §9, §10

beadstraw = assay: as above; details: dose 3.2 g/a, three weeks after application
Excerpt: as §13, §14, §9, §10

barnyardgrass [5] = assay: as above; details: dose 3.2 g/a, three weeks after application
Excerpt: as §13, §14, §9, §10

redroot pigweed [6] = assay: as above; details: dose 3.2 g/a, three weeks after application
Excerpt: as §13, §14, §9, §10

posumbu knotweed = assay: as above; details: dose 3.2 g/a, three weeks after application
Excerpt: as §13, §14, §9, §10

velvetleaf [7] = assay: as above; details: dose 3.2 g/a, three weeks after application
Excerpt: as §13, §14, §9, §10

common lambsquater [8] = assay: as above; details: dose 3.2 g/a, three weeks after application
Excerpt: as §13, §14, §9, §10

large crabgrass [9] = assay: as above; details: dose 3.2 g/a, three weeks after application
Excerpt: as §13, §14, §9, §10

giant foxtail [10] = assay: as above; details: dose 3.2 g/a, three weeks after application
Excerpt: as §13, §14, §9, §10

common chickweed [11] = assay: as above; details: dose 3.2 g/a, three weeks after application
Excerpt: as §13, §14, §9, §10

Italian ryegrass [12] = assay: as above; details: dose 3.2 g/a, three weeks after application
Excerpt: as §13, §14, §9, §10

common ragweed [13] = assay: as above; details: dose 3.2 g/a, three weeks after application
Excerpt: as §13, §14, §9, §10

water foxtail [14] = assay: Test Example 3: herbicidal effects in soil treatment; details: dose 3.2 g/a
Excerpt: (§15) Test on the Herbicidal Effects in Soil Treatment
as §14, with “chickweed” for “chickweed,”, “Emulsifiable” for “The boxes were placed in a greenhouse at 25 to 30° C. to grow the plants. After 14 days, emulsifiable”, “soil surfaces” for “foliage”, “dilute” for “diluted”
as §9, §10

barnyardgrass [15] = assay: as above; details: dose 3.2 g/a
Excerpt: as §15
as §14, with “chickweed” for “chickweed,”, “Emulsifiable” for “The boxes were placed in a greenhouse at 25 to 30° C. to grow the plants. After 14 days, emulsifiable”, “soil surfaces” for “foliage”, “dilute” for “diluted”
as §9, §10

redroot pigweed [16] = assay: as above; details: dose 3.2 g/a
Excerpt: as §15
as §14, with “chickweed” for “chickweed,”, “Emulsifiable” for “The boxes were placed in a greenhouse at 25 to 30° C. to grow the plants. After 14 days, emulsifiable”, “soil surfaces” for “foliage”, “dilute” for “diluted”
as §9, §10

velvetleaf [17] = assay: as above; details: dose 3.2 g/a
Excerpt: as §15
as §14, with “chickweed” for “chickweed,”, “Emulsifiable” for “The boxes were placed in a greenhouse at 25 to 30° C. to grow the plants. After 14 days, emulsifiable”, “soil surfaces” for “foliage”, “dilute” for “diluted”
as §9, §10

common lambsquater [18] = assay: as above; details: dose 3.2 g/a
Excerpt: as §15
as §14, with “chickweed” for “chickweed,”, “Emulsifiable” for “The boxes were placed in a greenhouse at 25 to 30° C. to grow the plants. After 14 days, emulsifiable”, “soil surfaces” for “foliage”, “dilute” for “diluted”
as §9, §10

large crabgrass [19] = assay: as above; details: dose 3.2 g/a
Excerpt: as §15
as §14, with “chickweed” for “chickweed,”, “Emulsifiable” for “The boxes were placed in a greenhouse at 25 to 30° C. to grow the plants. After 14 days, emulsifiable”, “soil surfaces” for “foliage”, “dilute” for “diluted”
as §9, §10

giant foxtail [20] = assay: as above; details: dose 3.2 g/a
Excerpt: as §15
as §14, with “chickweed” for “chickweed,”, “Emulsifiable” for “The boxes were placed in a greenhouse at 25 to 30° C. to grow the plants. After 14 days, emulsifiable”, “soil surfaces” for “foliage”, “dilute” for “diluted”
as §9, §10

common chickweed [21] = assay: as above; details: dose 3.2 g/a
Excerpt: as §15
as §14, with “chickweed” for “chickweed,”, “Emulsifiable” for “The boxes were placed in a greenhouse at 25 to 30° C. to grow the plants. After 14 days, emulsifiable”, “soil surfaces” for “foliage”, “dilute” for “diluted”
as §9, §10

Italian ryegrass [22] = assay: as above; details: dose 3.2 g/a
Excerpt: as §15
as §14, with “chickweed” for “chickweed,”, “Emulsifiable” for “The boxes were placed in a greenhouse at 25 to 30° C. to grow the plants. After 14 days, emulsifiable”, “soil surfaces” for “foliage”, “dilute” for “diluted”
as §9, §10

common ragweed [23] = assay: as above; details: dose 3.2 g/a
Excerpt: as §15
as §14, with “chickweed” for “chickweed,”, “Emulsifiable” for “The boxes were placed in a greenhouse at 25 to 30° C. to grow the plants. After 14 days, emulsifiable”, “soil surfaces” for “foliage”, “dilute” for “diluted”
as §9, §10

barnyardgrass [24] = assay: Test Example 1: herbicidal effects in preemergence treatment under submerged conditions; details: dose 2.52 g/a
Excerpt: as §1, §2, §3, §4, §5, §6, §7, §8, §9, §10

ducksalad [25] = assay: as above; details: dose 2.52 g/a
Excerpt: as §1, §2, §3, §4, §5, §6, §7, §8, §9, §10

bulrush [26] = assay: as above; details: dose 2.52 g/a
Excerpt: as §1, §2, §3, §4, §5, §6, §7, §8, §9, §10

SMILES: CCOC(=O)N(c1ccccc1CN1COC2(CCCC2)CC1=O)S(=O)(=O)C(F)(F)F [II-66]
- a: transplanted rice, effect on crop (evaluation scale 0-5) (transplanted rice): 0 (mortality of less than 5% (almost ineffective))
- A: barnyardgrass, herbicidal effect (evaluation scale 0-5) (barnyardgrass [1]): 5 (mortality of 90% or above (nearly complete death))
- C: ducksalad, herbicidal effect (evaluation scale 0-5) (ducksalad [2]): 5 (mortality of 90% or above (nearly complete death))
- B: bulrush, herbicidal effect (evaluation scale 0-5) (bulrush [3]): 5 (mortality of 90% or above (nearly complete death))
- G: water foxtail, herbicidal effect (water foxtail [4]): 5 (mortality of 90% or above (nearly complete death))
- O: beadstraw, herbicidal effect (beadstraw): 0 (mortality of less than 5% (almost ineffective))
- A: barnyardgrass, herbicidal effect (barnyardgrass [5]): 5 (mortality of 90% or above (nearly complete death))
- K: redroot pigweed, herbicidal effect (redroot pigweed [6]): 0 (mortality of less than 5% (almost ineffective))
- M: posumbu knotweed, herbicidal effect (posumbu knotweed): 4 (mortality of at least 70% and less than 90%)
- I: velvetleaf, herbicidal effect (velvetleaf [7]): 3 (mortality of at least 40% and less than 70%)
- L: common lambsquater, herbicidal effect (common lambsquater [8]): 3 (mortality of at least 40% and less than 70%)
- D: large crabgrass, herbicidal effect (large crabgrass [9]): 3 (mortality of at least 40% and less than 70%)
- E: giant foxtail, herbicidal effect (giant foxtail [10]): 4 (mortality of at least 70% and less than 90%)
- N: common chickweed, herbicidal effect (common chickweed [11]): 4 (mortality of at least 70% and less than 90%)
- H: Italian ryegrass, herbicidal effect (Italian ryegrass [12]): 3 (mortality of at least 40% and less than 70%)
- J: common ragweed, herbicidal effect (common ragweed [13]): 3 (mortality of at least 40% and less than 70%)
- G: water foxtail, herbicidal effect (evaluation scale 0-5) (water foxtail [14]): 5 (mortality of 90% or above (nearly complete death))
- A: barnyardgrass, herbicidal effect (evaluation scale 0-5) (barnyardgrass [15]): 5 (mortality of 90% or above (nearly complete death))
- K: redroot pigweed, herbicidal effect (evaluation scale 0-5) (redroot pigweed [16]): 2 (mortality of at least 20% and less than 40%)
- I: velvetleaf, herbicidal effect (evaluation scale 0-5) (velvetleaf [17]): 4 (mortality of at least 70% and less than 90%)
- L: common lambsquater, herbicidal effect (evaluation scale 0-5) (common lambsquater [18]): 0 (mortality of less than 5% (almost ineffective))
- D: large crabgrass, herbicidal effect (evaluation scale 0-5) (large crabgrass [19]): 5 (mortality of 90% or above (nearly complete death))
- E: giant foxtail, herbicidal effect (evaluation scale 0-5) (giant foxtail [20]): 5 (mortality of 90% or above (nearly complete death))
- N: common chickweed, herbicidal effect (evaluation scale 0-5) (common chickweed [21]): 5 (mortality of 90% or above (nearly complete death))
- H: Italian ryegrass, herbicidal effect (evaluation scale 0-5) (Italian ryegrass [22]): 5 (mortality of 90% or above (nearly complete death))
- J: common ragweed, herbicidal effect (evaluation scale 0-5) (common ragweed [23]): 3 (mortality of at least 40% and less than 70%)
- A: barnyardgrass, herbicidal effect (evaluation scale 0-5) (barnyardgrass [24]): 5 (mortality of 90% or above (nearly complete death))
- C: ducksalad, herbicidal effect (evaluation scale 0-5) (ducksalad [25]): 5 (mortality of 90% or above (nearly complete death))
- B: bulrush, herbicidal effect (evaluation scale 0-5) (bulrush [26]): 5 (mortality of 90% or above (nearly complete death))
